Measured values reported in patent publication US20250179066A1, “ZWITTERIONIC ANTIBACTERIAL COMPOUNDS” (Hoffmann-La Roche Inc., priority 2022, published 2025).
Where a name gives a salt, the structure may show the parent alone. Read-outs that look alike come from different tables or passages of the source.

Tested on: Acinetobacter baumannii ATCC17961
Assay: Antimicrobial susceptibility testing: 90% growth inhibitory concentration (IC90) determination
Format: cell-based
Details: 90% growth inhibitory concentration against Acinetobacter baumannii ATCC17961, Iso-Sensitest broth, OD 600 nm over 16 h, read-out: ATCC 17961 IC90
In short: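 Twofold serial dilutions (e.g. 10 to 0.0195 μM final) in Iso-Sensitest broth inoculated at ~5×10^5 CFU/mL, incubated at 35±2° C. OD600 read every minute for 16 h; IC90 is the concentration inhibiting 90% of growth during logarithmic phase.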

[1] = Acinetobacter baumannii, ATCC17961, 16 h

SMILES	IC90 [1] [nM]	IC90 [nM]
Cn1c(-c2cn(-c3cc4[nH]c(C(=O)N5CCOCC5)cc4cn3)nc2C(F)(F)F)cnc1C(=O)Nc1ccc(C(=O)N2CCN(C(=O)[C@H]3CC[N@+](CC(=O)O)(CC4CNC4)CC3)CC2)c(Cl)c1 [Example 139, cis-2-[1-(azetidin-3-ylmethyl)-4-[4-[2-chloro-4-[[1-methyl-5-[1-[2-(morpholine-4-carbonyl)-1H-pyrrolo[3,2-c]pyridin-6-yl]-3-(trifluoromethyl)pyrazol-4-yl]imidazole-2-carbonyl]amino]benzoyl]piperazine-1-carbonyl]piperidin-1-ium-1-yl]acetic acid. 1:1 2,2,2-trifluoroacetate]	172	
Cn1c(-c2cn(-c3ccc4[nH]c(CCCO)cc4n3)nc2C(F)(F)F)cnc1C(=O)Nc1ccc(C(=O)N2CCN(C(=O)C3CC[N+](CCCN)(CC(=O)O)CC3)CC2)c(Cl)c1 (stereo not drawn) [Example 98, cis-2-[1-(3-aminopropyl)-4-[4-[2-chloro-4-[[5-[1-[2-(3-hydroxypropyl)-1H-pyrrolo[3,2-b]pyridin-5-yl]-3-(trifluoromethyl)pyrazol-4-yl]-1-methyl-imidazole-2-carbonyl]amino]benzoyl]piperazine-1-carbonyl]piperidin-1-ium-1-yl]acetic acid;chloride]	387	
Cn1c(-c2cn(-c3ccc4[nH]ccc4n3)nc2C(F)(F)F)cnc1C(=O)Nc1ccc(C(=O)N2CCN(C(=O)[C@H]3CC[N@+](CC(=O)O)(CC4CNC4)CC3)CC2)c(Cl)c1 [Example 27, cis-2-[1-(azetidin-3-ylmethyl)-4-[4-[2-chloro-4-[[1-methyl-5-[1-(1H-pyrrolo[3,2-b]pyridin-5-yl)-3-(trifluoromethyl)pyrazol-4-yl]imidazole-2-carbonyl]amino]benzoyl]piperazine-1-carbonyl]piperidin-1-ium-1-yl]acetic acid. 1:1 2,2,2-trifluoroacetate]	360	
CN(C)C(=O)c1cc2cnc(-n3cc(-c4cnc(C(=O)Nc5ccc(C(=O)N6CCN(C(=O)[C@H]7CC[N@+](CC(=O)O)(CC8CNC8)CC7)CC6)c(Cl)c5)n4C)c(C(F)(F)F)n3)cc2[nH]1 [Example 123, cis-2-[1-(azetidin-3-ylmethyl)-4-[4-[2-chloro-4-[[5-[1-[2-(dimethylcarbamoyl)-1H-pyrrolo[3,2-c]pyridin-6-yl]-3-(trifluoromethyl)pyrazol-4-yl]-1-methyl-imidazole-2-carbonyl]amino]benzoyl]piperazine-1-carbonyl]piperidin-1-ium-1-yl]acetic acid. 1:1 2,2,2-trifluoroacetate]	216	
Cn1c(-c2cn(-c3ccc(N)cn3)nc2C(F)(F)F)cnc1C(=O)Nc1ccc(C(=O)N2CCN(C(=O)CC[C@H](N)C(=O)O)CC2)c(Cl)c1 [Example 90, (2S)-2-amino-5-[4-[4-[[5-[1-(5-amino-2-pyridyl)-3-(trifluoromethyl)pyrazol-4-yl]-1-methyl-imidazole-2-carbonyl]amino]-2-chloro-benzoyl]piperazino]-5-keto-valeric acid. 1:1 2,2,2-trifluoroacetic acid]	1520	
Cn1c(-c2cn(-c3ccc(N)cn3)nc2C(F)(F)F)cnc1C(=O)Nc1ccc(C(=O)N2CCN(C(=O)C[C@H](N)C(=O)O)CC2)c(Cl)c1 [Example 83, (2S)-2-amino-4-[4-[4-[[5-[1-(5-amino-2-pyridyl)-3-(trifluoromethyl)pyrazol-4-yl]-1-methyl-imidazole-2-carbonyl]amino]-2-chloro-benzoyl]piperazino]-4-keto-butyric acid. 1:1 2,2,2-trifluoroacetic acid]	1240	
Cn1c(-c2cn(-c3ccc(NCCN)cn3)nc2C(F)(F)F)cnc1C(=O)Nc1ccc(C(=O)N2CCN(C(=O)C3CC[N+](C)(CC(=O)[O-])CC3)CC2)c(Cl)c1 (stereo not shown) [Example 201, 2-[4-[4-[4-[[5-[1-[5-(2-aminoethylamino)-2-pyridyl]-3-(trifluoromethyl)pyrazol-4-yl]-1-methyl-imidazole-2-carbonyl]amino]-2-chloro-benzoyl]piperazine-1-carbonyl]-1-methyl-piperidin-1-ium-1-yl]acetate]	682	
CC(Cn1ccc2nc(-n3cc(-c4cnc(C(=O)Nc5ccc(C(=O)N6CCN(C(=O)[C@H]7CC[N@+](CC(=O)O)(CC8CNC8)CC7)CC6)c(Cl)c5)n4C)c(C(F)(F)F)n3)ccc21)C(N)=O (stereo partly shown) [Example 161, 2-[4-[4-[4-[[5-[1-[1-(3-amino-2-methyl-3-oxo-propyl)pyrrolo[3,2-b]pyridin-5-yl]-3-(trifluoromethyl)pyrazol-4-yl]-1-methyl-imidazole-2-carbonyl]amino]-2-chloro-benzoyl]piperazine-1-carbonyl]-1-(azetidin-3-ylmethyl)piperidin-1-ium-1-yl]acetic acid;2,2,2-trifluoroacetate]	390	
Cn1c(-c2cn(-c3ccc4[nH]c(CCO)cc4n3)nc2C(F)(F)F)cnc1C(=O)Nc1ccc(C(=O)N2CCN(C(=O)[C@H]3CC[N@+](CC(=O)O)(CC4CNC4)CC3)CC2)c(Cl)c1 [Example 162, cis-2-[1-(azetidin-3-ylmethyl)-4-[4-[2-chloro-4-[[5-[1-[2-(2-hydroxyethyl)-1H-pyrrolo[3,2-b]pyridin-5-yl]-3-(trifluoromethyl)pyrazol-4-yl]-1-methyl-imidazole-2-carbonyl]amino]benzoyl]piperazine-1-carbonyl]piperidin-1-ium-1-yl]acetic acid;formate]	203	
Cn1c(-c2cn(-c3ccc(NCCCN)cc3F)nc2C(F)(F)F)cnc1C(=O)Nc1ccc(C(=O)N2CCN(C(=O)[C@H]3CC[N@+](CC(=O)O)(CC4CNC4)CC3)CC2)c(Cl)c1 [Example 186, cis-2-[4-[4-[4-[[5-[1-[4-(3-aminopropylamino)-2-fluoro-phenyl]-3-(trifluoromethyl)pyrazol-4-yl]-1-methyl-imidazole-2-carbonyl]amino]-2-chloro-benzoyl]piperazine-1-carbonyl]-1-(azetidin-3-ylmethyl)piperidin-1-ium-1-yl]acetic Acid.1:1 formate]	160	

Next, values leading:

IC90 [1] [nM]	IC90 [nM]	SMILES
	170	Cn1c(-c2cn(-c3ccc(NCCN)cn3)nc2C(F)(F)F)cnc1C(=O)Nc1ccc(C(=O)N2CCN(C(=O)[C@H]3CC[N@+](CC(=O)O)(CC4CNC4)CC3)CC2)c(Cl)c1 [Example 10, cis-2-[4-[4-[4-[[5-[1-[5-(2-Aminoethylamino)-2-pyridyl]-3-(trifluoromethyl)pyrazol-4-yl]-1-methyl-imidazole-2-carbonyl]amino]-2-chloro-benzoyl]piperazine-1-carbonyl]-1-(azetidin-3-ylmethyl)piperidin-1-ium-1-yl]acetic Acid.1:1 2,2,2-trifluoroacetic Acid.1:1 2,2,2-trifluoroacetate]
940		Cn1c(-c2cn(-c3ccnc(N)c3)nc2C(F)(F)F)cnc1C(=O)Nc1ccc(C(=O)N2CCN(C(=O)C3CC[N+](CC(=O)O)(CC4CNC4)CC3)CC2)c(Cl)c1 (stereo not shown) [Example 74, 2-[4-[4-[4-[[5-[1-(2-amino-4-pyridyl)-3-(trifluoromethyl)pyrazol-4-yl]-1-methyl-imidazole-2-carbonyl]amino]-2-chloro-benzoyl]piperazine-1-carbonyl]-1-(azetidin-3-ylmethyl)piperidin-1-ium-1-yl]acetic acid. 1:1 2,2,2-trifluoroacetate]
1410		CNc1cc(-n2cc(-c3cnc(C(=O)Nc4ccc(C(=O)N5CCN(C(=O)C6CC[N+](CC(=O)O)(CC7CNC7)CC6)CC5)c(Cl)c4)n3C)c(C(F)(F)F)n2)ccn1 (stereo not shown) [Example 88, 2-[1-(azetidin-3-ylmethyl)-4-[4-[2-chloro-4-[[1-methyl-5-[1-[2-(methylamino)-4-pyridyl]-3-(trifluoromethyl)pyrazol-4-yl]imidazole-2-carbonyl]amino]benzoyl]piperazine-1-carbonyl]piperidin-1-ium-1-yl]acetic acid. 1:1 2,2,2-trifluoroacetate]
650		Cn1c(-c2cn(-c3ccc(N)cn3)nc2C(F)(F)F)cnc1C(=O)Nc1ccc(C(=O)N2CCN(C(=O)C3CC[N+](CC(=O)O)(CC4CNC4)CC3)CC2)c(Cl)c1 (stereo not shown) [Example 59, 2-[4-[4-[4-[[5-[1-(5-amino-2-pyridyl)-3-(trifluoromethyl)pyrazol-4-yl]-1-methyl-imidazole-2-carbonyl]amino]-2-chloro-benzoyl]piperazine-1-carbonyl]-1-(azetidin-3-ylmethyl)piperidin-1-ium-1-yl]acetic acid. 1:1 formate]
180		Cn1c(-c2cn(-c3ccc(NCCN)cn3)nc2C(F)(F)F)cnc1C(=O)Nc1ccc(C(=O)N2CCN(C(=O)C3CC[N+](CC(=O)O)(CC4CNC4)CC3)CC2)c(Cl)c1 (stereo not shown) [Example 12, 2-[4-[4-[4-[[5-[1-[5-(2-aminoethylamino)-2-pyridyl]-3-(trifluoromethyl)pyrazol-4-yl]-1-methyl-imidazole-2-carbonyl]amino]-2-chloro-benzoyl]piperazine-1-carbonyl]-1-(azetidin-3-ylmethyl)piperidin-1-ium-1-yl]acetic acid. 1:1 2,2,2-trifluoroacetic acid. 1:1 2,2,2-trifluoroacetate]
260		Cn1c(-c2cn(-c3ccc4[nH]ccc4n3)nc2C(F)(F)F)cnc1C(=O)Nc1ccc(C(=O)N2CCN(C(=O)C3CC[N+](CC(=O)O)(CC4CNC4)CC3)CC2)c(Cl)c1 (stereo not shown) [Example 18, 2-[1-(azetidin-3-ylmethyl)-4-[4-[2-chloro-4-[[1-methyl-5-[1-(1H-pyrrolo[3,2-b]pyridin-5-yl)-3-(trifluoromethyl)pyrazol-4-yl]imidazole-2-carbonyl]amino]benzoyl]piperazine-1-carbonyl]piperidin-1-ium-1-yl]acetic acid. 1:1 formate]
